According to patent US20240158446A1, “CYCLIC COMPOUND HAVING SELECTIVE INHIBITORY ACTION ON KRAS OVER HRAS AND NRAS” (CHUGAI SEIYAKU KABUSHIKI KAISHA, priority 2021, published 2024):
pIC50, pKd: −log10 of the molar value.

Experiments:
[1] = biological target: GDP-bound HRAS wild-type protein (Homo sapiens, UniProt P01112); test: Binding to HRAS by surface plasmon resonance (SPR), Single Cycle Kinetics; conditions: SPR; GDP-bound HRAS wild-type protein vs GDP-bound KRAS wild-type protein; KD ratio class
[2] = biological target: GDP-bound KRAS wild-type protein (Homo sapiens, UniProt P01116); test: Binding to KRAS by surface plasmon resonance (SPR), Single Cycle Kinetics; conditions: SPR, Single Cycle Kinetics, 1:1 binding model; GDP-bound KRAS wild-type protein; read-out: KRAS KD
[3] = system: human lung cancer strain NCI-H441;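 note: cell proliferation inhibition after four days measured by CellTiter-Glo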
[4] = biological target: GDP-bound NRAS wild-type protein (Homo sapiens, UniProt P01111); test: Binding to NRAS by surface plasmon resonance (SPR), Single Cycle Kinetics; conditions: SPR; GDP-bound NRAS wild-type protein vs GDP-bound KRAS wild-type protein; KD ratio class
Chain of GDP-bound NRAS wild-type protein (P01111 whole entry): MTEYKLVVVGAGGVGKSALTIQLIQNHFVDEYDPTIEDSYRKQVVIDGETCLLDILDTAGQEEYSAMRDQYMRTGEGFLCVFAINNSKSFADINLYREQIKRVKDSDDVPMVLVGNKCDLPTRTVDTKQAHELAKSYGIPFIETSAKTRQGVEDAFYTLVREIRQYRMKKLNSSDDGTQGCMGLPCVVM

Chain of GDP-bound KRAS wild-type protein (P01116 whole entry): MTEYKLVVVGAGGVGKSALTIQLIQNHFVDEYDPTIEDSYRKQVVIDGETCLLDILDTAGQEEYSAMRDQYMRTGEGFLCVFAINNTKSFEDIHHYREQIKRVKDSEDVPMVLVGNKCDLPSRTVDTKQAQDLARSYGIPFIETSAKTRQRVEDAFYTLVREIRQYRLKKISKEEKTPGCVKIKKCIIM
Chain of GDP-bound HRAS wild-type protein (P01112 whole entry): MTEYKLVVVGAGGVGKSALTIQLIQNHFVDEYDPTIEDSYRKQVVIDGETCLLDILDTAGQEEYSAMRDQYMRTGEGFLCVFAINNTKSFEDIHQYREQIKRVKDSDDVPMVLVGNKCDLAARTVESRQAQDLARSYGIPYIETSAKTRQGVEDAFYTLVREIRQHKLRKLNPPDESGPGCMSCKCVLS

pKd [2] | pIC50 [3] | Structure (SMILES) | HRAS/KRAS (ratio of KD value for HRAS to KD value for KRAS) [1] | NRAS/KRAS (ratio of KD value for NRAS to KD value for KRAS) [4]
10.06 | 8.24 | CCO[C@@H]1C[C@H]2C(=O)NC3(CCCC3)C(=O)N(C)[C@@H](C3CCCC3)C(=O)N(C)[C@H](C(=O)N3CCOCC3)CC(=O)N(C)[C@@H](CC)C(=O)N[C@@H]([C@@H](C)CC)C(=O)N(C)CC(=O)N(C)[C@H]3CC[C@@H](C)CN(C3=O)[C@@H](Cc3ccc(C(F)(F)F)cc3)C(=O)N(C)CC(=O)N[C@@H](CCc3ccc(C(F)(F)F)c(Cl)c3)C(=O)N2C1 [PP1377] | B (a compound having 3 or more and less than 10 is denoted as B) | B (a compound having 3 or more and less than 10 is denoted as B)
10.09 | 8.18 | CCO[C@@H]1C[C@H]2C(=O)NC3(CCC3)C(=O)N(C)[C@@H](C3CCCC3)C(=O)N(C)[C@H](C(=O)N3CCOCC3)CC(=O)N(C)[C@@H](CC)C(=O)N[C@@H]([C@@H](C)CC)C(=O)N(C)CC(=O)N(C)[C@H]3CC[C@@H](C)CN(C3=O)[C@@H](Cc3ccc(C(F)(F)F)cc3)C(=O)N(C)CC(=O)N[C@@H](CCc3ccc(C(F)(F)F)c(Cl)c3)C(=O)N2C1 [PP1378] | C (A compound having a KD ratio of 0.1 or more and less than 3 is denoted as C) | B (a compound having 3 or more and less than 10 is denoted as B)
9.54 | 7.99 | CCO[C@@H]1C[C@H]2C(=O)NC3(CCC3)C(=O)N(C)[C@@H](C3CCCC3)C(=O)N(C)[C@H](C(=O)N3CCOCC3)CC(=O)N(C)[C@@H](CC(C)C)C(=O)N[C@@H]([C@@H](C)CC)C(=O)N3CC[C@H]3C(=O)N(C)[C@H]3CC[C@@H](C)CN(C3=O)[C@@H](Cc3ccc(C(F)(F)F)cc3)C(=O)N(C)CC(=O)N[C@@H](CCc3ccc(C(F)(F)F)c(Cl)c3)C(=O)N2C1 [PP1379] | B (a compound having 3 or more and less than 10 is denoted as B) | A (a compound having 10 or more and less than 20 is denoted as A)
10.17 | 7.80 | CC[C@H](C)[C@@H]1NC(=O)[C@H](CC)N(C)C(=O)C[C@@H](C(=O)N(C)C)N(C)C(=O)[C@H](C2CCCC2)N(C)C(=O)C2(CCCC2)NC(=O)[C@@H]2CCCN2C(=O)[C@H](CCc2cc(F)c(C(F)(F)F)c(F)c2)NC(=O)CN(C)C(=O)[C@H](Cc2ccc(C(F)(F)F)cc2)N2C[C@H](C)CC[C@@H](C2=O)N(C)C(=O)CN(C)C1=O [PP1382] | B (a compound having 3 or more and less than 10 is denoted as B) | B (a compound having 3 or more and less than 10 is denoted as B)
9.77 | 7.95 | CC[C@H](C)[C@@H]1NC(=O)[C@H](CC)N(C)C(=O)C[C@@H](C(=O)N2CCOCC2)N(C)C(=O)[C@H](C2CCCC2)N(C)C(=O)C2(CCCC2)NC(=O)[C@@H]2CCCN2C(=O)[C@H](CCc2cc(F)c(C(F)(F)F)c(F)c2)NC(=O)CN(C)C(=O)[C@H](Cc2ccc(C(F)(F)F)cc2)N2C[C@H](C)CC[C@@H](C2=O)N(C)C(=O)CN(C)C1=O [PP1383] | B (a compound having 3 or more and less than 10 is denoted as B) | B (a compound having 3 or more and less than 10 is denoted as B)
9.96 | 7.87 | CC[C@H](C)[C@@H]1NC(=O)[C@H](CC)N(C)C(=O)C[C@@H](C(=O)N2CCOCC2)N(C)C(=O)[C@H](C2CCCC2)N(C)C(=O)C2(CCC2)NC(=O)[C@@H]2CCCN2C(=O)[C@H](CCc2cc(F)c(C(F)(F)F)c(F)c2)NC(=O)CN(C)C(=O)[C@H](Cc2ccc(C(F)(F)F)cc2)N2C[C@H](C)CC[C@@H](C2=O)N(C)C(=O)CN(C)C1=O [PP1384] | B (a compound having 3 or more and less than 10 is denoted as B) | A (a compound having 10 or more and less than 20 is denoted as A)
10.09 | 8.38 | CC[C@H](C)[C@@H]1NC(=O)[C@H](CC2CCC2)N(C)C(=O)C[C@@H](C(=O)N(C)C)N(C)C(=O)[C@H](C2CCCC2)N(C)C(=O)C2(CCCC2)NC(=O)[C@@H]2CCCN2C(=O)[C@H](CCc2cc(F)c(C(F)(F)F)c(F)c2)NC(=O)CN(C)C(=O)[C@H](Cc2ccc(C(F)(F)F)cc2)N2C[C@H](C)CC[C@@H](C2=O)N(C)C(=O)CN(C)C1=O [PP1386] | B (a compound having 3 or more and less than 10 is denoted as B) | B (a compound having 3 or more and less than 10 is denoted as B)
8.96 | 6.52 | CCO[C@@H]1C[C@H]2C(=O)NC3(CCC3)C(=O)N(C)[C@@H](C3CCCC3)C(=O)N(C)[C@H](C(=O)N(C)C)CC(=O)N(C)[C@@H](CC3CCCC3)C(=O)N[C@@H]([C@@H](C)CC)C(=O)N(C)CC(=O)N(C)[C@H]3C/C=C\CCN(C3=O)[C@@H](Cc3ccc(F)cc3)C(=O)N(C)CC(=O)N[C@@H](CCc3ccc4sccc4c3)C(=O)N2C1 [PP1390] | A (a compound having 10 or more and less than 20 is denoted as A) | A (a compound having 10 or more and less than 20 is denoted as A)
8.80 | 6.57 | CCO[C@@H]1C[C@H]2C(=O)NC3(CCC3)C(=O)N(C)[C@@H](C3CCCC3)C(=O)N(C)[C@H](C(=O)N3CCCC3)CC(=O)N(C)[C@@H](CC3CCCC3)C(=O)N[C@@H]([C@@H](C)CC)C(=O)N(C)CC(=O)N(C)[C@H]3C/C=C\CCN(C3=O)[C@@H](Cc3ccc(F)cc3)C(=O)N(C)CC(=O)N[C@@H](CCc3ccc4sccc4c3)C(=O)N2C1 [PP1391] | A (a compound having 10 or more and less than 20 is denoted as A) | A (a compound having 10 or more and less than 20 is denoted as A)
10.33 | 8.85 | CCCC[C@H]1C(=O)N[C@@H]([C@@H](C)CC)C(=O)N(C)CC(=O)N(C)[C@H]2C/C=C\CCN(C2=O)[C@@H](Cc2ccc(C(F)(F)F)cc2)C(=O)N(C)CC(=O)N[C@@H](CCc2cc(F)c(C(F)(F)F)c(F)c2)C(=O)N2C[C@H](OCC)C[C@H]2C(=O)NC2(CCC2)C(=O)N(C)[C@@H](C2CCCC2)C(=O)N(C)[C@H](C(=O)N(C)C)CC(=O)N1C [PP1392, (2S,8S,12R,14S,20S,23S,27S,30S,36S,38Z)-27-butyl-20-cyclopentyl-8-[2-[3,5-difluoro-4-(trifluoromethyl)phenyl]ethyl]-12-ethoxy-N,N,4,19,22,26,32,35-octamethyl-30-[(1S)-1-methylpropyl]-3,6,9,15,18,21,25,28,31,34,42-undecaoxo-2-[[4-(trifluoromethyl)phenyl]methyl]spiro[1,4,7,10,16,19,22,26,29,32,35-undecazatricyclo[34.5.1.0^10,14]dotetracont-38-ene-17,1′-cyclobutane]-23-carboxamide] | A (a compound having 10 or more and less than 20 is denoted as A) | A (a compound having 10 or more and less than 20 is denoted as A)
9.72 | 7.74 | CCO[C@@H]1C[C@H]2C(=O)NC3(CCC3)C(=O)N(C)[C@@H](C3CCCC3)C(=O)N(C)[C@H](C(=O)N3CCOCC3)CC(=O)N(C)[C@@H](CC3CCCC3)C(=O)N[C@@H]([C@@H](C)CC)C(=O)N(C)CC(=O)N(C)[C@H]3C/C=C\CCN(C3=O)[C@@H](Cc3ccc(C(F)(F)F)cc3)C(=O)N(C)CC(=O)N[C@@H](CCc3cc(F)c(C(F)(F)F)c(F)c3)C(=O)N2C1 [PP1393] | A (a compound having 10 or more and less than 20 is denoted as A) | A (a compound having 10 or more and less than 20 is denoted as A)
9.62 | 7.60 | CCO[C@@H]1C[C@H]2C(=O)NC3(CCC3)C(=O)N(C)[C@@H](C3CCCC3)C(=O)N(C)[C@H](C(=O)N3CCOCC3)CC(=O)N(C)[C@@H](CC3CCCC3)C(=O)N[C@@H]([C@@H](C)CC)C(=O)N(C)CC(=O)N(C)[C@H]3C/C=C\CCN(C3=O)[C@@H](Cc3ccc(C)cc3)C(=O)N(C)CC(=O)N[C@@H](CCc3cc(F)c(C(F)(F)F)c(F)c3)C(=O)N2C1 [PP1394] | A (a compound having 10 or more and less than 20 is denoted as A) | AA (a compound having 20 or more is denoted as AA)
10.20 | 8.42 | CCCOC[C@H]1C(=O)N[C@@H]([C@@H](C)CC)C(=O)N(C)CC(=O)N(C)[C@H]2C/C=C\CCN(C2=O)[C@@H](Cc2ccc(C(F)(F)F)cc2)C(=O)N(C)CC(=O)N[C@@H](CCc2cc(F)c(C(F)(F)F)c(F)c2)C(=O)N2C[C@H](OCC)C[C@H]2C(=O)NC2(CCC2)C(=O)N(C)[C@@H](C2CCCC2)C(=O)N(C)[C@H](C(=O)N(C)C)CC(=O)N1C [PP1395, (2S,8S,12R,14S,20S,23S,27S,30S,36S,38Z)-20-cyclopentyl-8-[2-[3,5-difluoro-4-(trifluoromethyl)phenyl]ethyl]-12-ethoxy-N,N,4,19,22,26,32,35-octamethyl-30-[(1S)-1-methylpropyl]-3,6,9,15,18,21,25,28,31,34,42-undecaoxo-27-(propoxymethyl)-2-[[4-(trifluoromethyl)phenyl]methyl]spiro[1,4,7,10,16,19,22,26,29,32,35-undecazatricyclo[34.5.1.0^10,14]dotetracont-38-ene-17,1′-cyclobutane]-23-carboxamide] | B (a compound having 3 or more and less than 10 is denoted as B) | A (a compound having 10 or more and less than 20 is denoted as A)
